Test results from ChEMBL document CHEMBL6109153, “Development of Membrane-Targeting Osthole Derivatives Containing Pyridinium Quaternary Ammonium Moieties with Potent Anti-Methicillin-Resistant Staphylococcus aureus Properties” (J Med Chem, 2025).

Assays:
[1] = test system: Staphylococcus aureus; experiment: Antibacterial activity against methicillin-resistant Staphylococcus aureus M14 incubated for 16 to 20 hrs by broth microdilution method; type: functional; conditions: time 16-20 hrs
[2] = test system: Staphylococcus aureus; experiment: Antibacterial activity against methicillin-resistant Staphylococcus aureus M22 incubated for 16 to 20 hrs by broth microdilution method; type: functional; conditions: time 16-20 hrs
[3] = test system: Staphylococcus aureus; experiment: Antibacterial activity against methicillin-resistant Staphylococcus aureus M12 incubated for 16 to 20 hrs by broth microdilution method; type: functional; conditions: time 16-20 hrs
[4] = test system: Staphylococcus aureus; experiment: Antibacterial activity against methicillin-resistant Staphylococcus aureus M13 incubated for 16 to 20 hrs by broth microdilution method; type: functional; conditions: time 16-20 hrs
[5] = Hemolytic activity against sheep erythrocytes; type: toxicity, cell-based, Ovis aries, Erythrocyte
[6] = test system: Staphylococcus aureus; experiment: Antibacterial activity against methicillin-resistant Staphylococcus aureus M21 incubated for 16 to 20 hrs by broth microdilution method; type: functional; conditions: time 16-20 hrs
[7] = test system: Staphylococcus aureus; experiment: Antibacterial activity against methicillin-resistant Staphylococcus aureus M17 incubated for 16 to 20 hrs by broth microdilution method; type: functional; conditions: time 16-20 hrs
[8] = test system: Staphylococcus aureus; experiment: Antibacterial activity against methicillin-resistant Staphylococcus aureus M23 incubated for 16 to 20 hrs by broth microdilution method; type: functional; conditions: time 16-20 hrs
[9] = test system: Staphylococcus aureus; experiment: Antibacterial activity against Staphylococcus aureus ATCC 29213 incubated for 16 to 20 hrs by broth microdilution method; type: functional; conditions: time 16-20 hrs
[10] = test system: Staphylococcus aureus; experiment: Antibacterial activity against methicillin-resistant Staphylococcus aureus M20 incubated for 16 to 20 hrs by broth microdilution method; type: functional; conditions: time 16-20 hrs
[11] = test system: Escherichia coli; experiment: Antibacterial activity against Escherichia coli ATCC 25922 incubated for 16 to 20 hrs by broth microdilution method; type: functional; conditions: time 16-20 hrs
[12] = test system: Staphylococcus aureus; experiment: Antibacterial activity against methicillin-resistant Staphylococcus aureus M11 incubated for 16 to 20 hrs by broth microdilution method; type: functional; conditions: time 16-20 hrs
[13] = test system: Staphylococcus aureus; experiment: Antibacterial activity against methicillin-resistant Staphylococcus aureus M16 incubated for 16 to 20 hrs by broth microdilution method; type: functional; conditions: time 16-20 hrs
[14] = test system: Staphylococcus aureus; experiment: Induction of resistance development in Staphylococcus aureus ATCC 29213 assessed as fold change in MIC at 0.5 times MIC measured after 18 passages by broth microdilution method; type: functional

SMILES	MIC [1]	MIC [2]	MIC [3]	MIC [4]	HC50 [5]	MIC [6]	MIC [7]	MIC [8]	MIC [9]	MIC [10]	MIC [11]	MIC [12]	MIC [13]	fold change (FC) [14]
CCCN(CCC)C(=O)C[n+]1ccc(SCCCCCOc2ccc3ccc(=O)oc3c2CC=C(C)C)cc1.[Br-]	1 µg/mL	1 µg/mL	2 µg/mL	4 µg/mL	> 160 µg/mL	1 µg/mL	2 µg/mL	2 µg/mL	1 µg/mL	1 µg/mL	> 128 µg/mL	1 µg/mL	1 µg/mL	
CC(C)=CCc1c(OCCCCSc2cc[n+](CC(=O)N3CCOCC3)cc2)ccc2ccc(=O)oc12.[Br-]	32 µg/mL	32 µg/mL	64 µg/mL	64 µg/mL	> 160 µg/mL	32 µg/mL	32 µg/mL	32 µg/mL	32 µg/mL	32 µg/mL	> 128 µg/mL	32 µg/mL	32 µg/mL	
CCCCCCNC(=O)C[n+]1ccc(SCCCCCOc2ccc3ccc(=O)oc3c2CC=C(C)C)cc1.[Br-]	2 µg/mL	2 µg/mL	2 µg/mL	2 µg/mL	> 160 µg/mL	2 µg/mL	2 µg/mL	2 µg/mL	64 µg/mL	4 µg/mL	> 128 µg/mL	2 µg/mL	2 µg/mL	
CCCNC(=O)C[n+]1ccc(SCCCCOc2ccc3ccc(=O)oc3c2CC=C(C)C)cc1.[Br-]	8 µg/mL	2 µg/mL	16 µg/mL	16 µg/mL	> 160 µg/mL	2 µg/mL	8 µg/mL	8 µg/mL	16 µg/mL	8 µg/mL	> 128 µg/mL	4 µg/mL	8 µg/mL	
CCn1cc(C(=O)O)c(=O)c2cc(F)c(N3CCNCC3)cc21 [NORFLOXACIN]														128
